The source of these data is PubChem BioAssay AID330 (DTP/NCI, 2004).

Values joined by “and” are separate entries in the source; they are usually repeats but may differ in a detail not shown here. Identical values can stand only once. Inconclusive results and toxic doses are left out. Bridge positions count the residues as written; N and C are the ends. Peptide text beside a SMILES is read from it. I, II: the chains in the order shown.

In this experiment the test system is P388 leukemia ip, CD2F1 mice, survival T/C. Description: NCI In Vivo Anticancer Drug Screen. Data for tumor model P388 Leukemia (intraperitoneal) in CD2F1 (CDF1) mice. Particulars: endpoint: median survival time, higher = longer survival. The method in brief:
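Mice carrying the transplanted tumor received test compound or vehicle. Survival was recorded in each group, and the value is the treated-group measurement divided by that of the vehicle-treated control group.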

[1] abbreviates: dose: 50.0 mg/kg/injection, schedule: Q01DX005 (ip), vehicle: Klucel (hydroxypropylcellulose) (HPC).
Setting [2] is: dose: 100.0 mg/kg/injection, schedule: Q01DX005 (ip), vehicle: Klucel (hydroxypropylcellulose) (HPC).
The mark [3] stands for this setting: dose: 50.0 mg/kg/injection, schedule: Q01DX009 (ip), vehicle: saline with Tween-80.
Setting [4] is: dose: 100.0 mg/kg/injection, schedule: Q01DX009 (ip), vehicle: saline with Tween-80.
The mark [5] stands for this setting: dose: 50.0 mg/kg/injection, schedule: Q01DX005 (ip), vehicle: saline with Tween-80.
The mark [6] stands for this setting: dose: 60.0 mg/kg/injection, schedule: Q01DX005 (ip), vehicle: saline with Tween-80.
Where [7] appears, read: dose: 120.0 mg/kg/injection, schedule: Q01DX005 (ip), vehicle: saline with Tween-80.
Setting [8] is: dose: 240.0 mg/kg/injection, schedule: Q01DX005 (ip), vehicle: saline with Tween-80.
The mark [9] stands for this setting: dose: 50.0 mg/kg/injection, schedule: Q01DX009 (ip), vehicle: saline.

Regarding `NC(CSSCC(N)C(=O)NC(Cc1ccccc1)C(=O)O)C(=O)NC(Cc1ccccc1)C(=O)O` (stereo not drawn) (I: H-Cys-Phe-OH / II: H-Cys-Phe-OH; disulfide I:1-II:1; configuration not given here), the T/C was 101 % of control under setting [1]; 97 % of control under setting [2]; 105 % of control (dose: 200.0 mg/kg/injection, schedule: Q01DX005 (ip), vehicle: Klucel (hydroxypropylcellulose) (HPC)).

As to `CCC1(CC)C(=O)NC(=O)[N]([Sn]([CH3])([CH3])[N]2C(=O)NC(=O)C(CC)(CC)C2=O)C1=O`, the T/C is 112 % of control under setting [1] and 111 % of control under setting [2].

`CNC(=O)OCc1nc(-c2ccccc2)n(C)c1COC(=O)NC`: the T/C was 98 % of control (dose: 12.5 mg/kg/injection, schedule: Q01DX005 (ip), vehicle: distilled water + Tween-80); 107 % of control (dose: 25.0 mg/kg/injection, schedule: Q01DX005 (ip), vehicle: distilled water + Tween-80); 112 % of control (dose: 50.0 mg/kg/injection, schedule: Q01DX005 (ip), vehicle: distilled water + Tween-80); 116 % of control (dose: 100.0 mg/kg/injection, schedule: Q01DX005 (ip), vehicle: distilled water + Tween-80); 119 % of control (dose: 200.0 mg/kg/injection, schedule: Q01DX005 (ip), vehicle: distilled water + Tween-80).

Regarding `C/C=C/COCC`, the T/C reads like this: (dose: 100.0 mg/kg/injection, schedule: Q04DX003 (ip), vehicle: saline with Tween-80) 101 % of control; (dose: 200.0 mg/kg/injection, schedule: Q04DX003 (ip), vehicle: saline with Tween-80) 106 % of control; (dose: 400.0 mg/kg/injection, schedule: Q04DX003 (ip), vehicle: saline with Tween-80) 108 % of control.

For `Nc1cc2nc3ccccc3sc-2cc1=O`, the T/C is, setting by setting: under setting [3], 112 % of control; under setting [4], 111 % of control; (dose: 200.0 mg/kg/injection, schedule: Q01DX009 (ip), vehicle: saline with Tween-80) 113 % of control; (dose: 400.0 mg/kg/injection, schedule: Q01DX009 (ip), vehicle: saline with Tween-80) 89 % of control.

Turning to `CCCCCCNc1nc(NCCCCCC)c2[nH]c(NCCCCCC)nc2n1`, the T/C under setting [5] was 122 % of control.

In the case of `CC1CCCC(C)N1Cc1ccccc1` (centres undefined), the T/C was 93 % of control (dose: 25.0 mg/kg/injection, schedule: Q01DX005 (ip), vehicle: saline with Tween-80) and 93 % of control under setting [5].

Regarding `COc1ccc(CN2CCC[S+]2C)cc1` (centres undefined), the T/C (dose: 50.0 mg/kg/injection, schedule: Q01DX005 (ip), vehicle: saline) was 95 % of control.

For `CCC1=C[C@@H]2C[C@](C(=O)OC)(c3cc4c(cc3OC)N(C)[C@H]3[C@@](O)(C(=O)OC)[C@H](OC(C)=O)[C@]5(CC)C=CCN6CC[C@]43[C@@H]65)c3[nH]c4ccccc4c3CCN(C1)[C@@H]2O`, the T/C is 117 % of control (dose: 2.5 mg/kg/injection, schedule: Q01DX001 (ip), vehicle: water); 153 % of control and 159 % of control (dose: 20.0 mg/kg/injection, schedule: Q01DX001 (ip), vehicle: water); 161 % of control and 170 % of control (dose: 40.0 mg/kg/injection, schedule: Q01DX001 (ip), vehicle: water); 180 % of control (dose: 80.0 mg/kg/injection, schedule: Q01DX001 (ip), vehicle: water); 93 % of control (dose: 160.0 mg/kg/injection, schedule: Q01DX001 (ip), vehicle: water).

Regarding `CC(Nc1nccs1)Nc1nccs1`, the T/C by setting is: (dose: 6.25 mg/kg/injection, schedule: Q01DX009 (ip), vehicle: saline with Tween-80) 102 % of control and 96 % of control; (dose: 12.5 mg/kg/injection, schedule: Q01DX009 (ip), vehicle: saline with Tween-80) 108 % of control and 98 % of control; (dose: 25.0 mg/kg/injection, schedule: Q01DX009 (ip), vehicle: saline with Tween-80) 102 % of control and 97 % of control; under setting [3], 111 % of control; under setting [4], 109 % of control.

Consider `Cc1ccc(NC(=O)/C(Cl)=C2/Sc3ccccc3NC2=O)cc1`, for which the T/C reads like this: under setting [6], 96 % of control; under setting [7], 100 % of control; under setting [8], 95 % of control.

On to `C[CH2][Sn]([CH2]C)([S]CCS(=O)(=O)O)[S]CCS(=O)(=O)O` (tested in a mixture with another compound), for which, where the note is “dose: 7.5 mg/kg/injection, schedule: Q01DX005 (ip), vehicle: saline”, the T/C is 123 % of control.

With `CCSSC12CCCN1C(=O)C(C)N(C)C2=O` (centres undefined), the T/C reads like this: under setting [9], 105 % of control; (dose: 100.0 mg/kg/injection, schedule: Q01DX009 (ip), vehicle: saline) 104 % of control; (dose: 200.0 mg/kg/injection, schedule: Q01DX009 (ip), vehicle: saline) 111 % of control.

As to `CC(=O)OCc1c(Cl)nc2n1CCS2`, the T/C runs as follows: (dose: 25.0 mg/kg/injection, schedule: Q01DX001 (ip), vehicle: Klucel (hydroxypropylcellulose) (HPC)) 103 % of control; (dose: 50.0 mg/kg/injection, schedule: Q01DX001 (ip), vehicle: Klucel (hydroxypropylcellulose) (HPC)) 96 % of control; (dose: 100.0 mg/kg/injection, schedule: Q01DX001 (ip), vehicle: Klucel (hydroxypropylcellulose) (HPC)) 102 % of control.

In the case of `Cc1ccc(NC(=O)CC(=O)CC(C)C)cc1C`, the T/C is 107 % of control under setting [5], 113 % of control under setting [7] and 114 % of control under setting [8].

`COC(=O)C1Cc2[nH]cnc2C(c2c(CO)cnc(C)c2O)N1` (centres undefined): the T/C reads like this: under setting [1], 104 % of control; under setting [2], 104 % of control.

Take `O=C1CN(c2cccc(Cl)c2)C(=O)CN1/N=C/c1ccc(O)c(O)c1`: the T/C was 88 % of control under setting [5]; 92 % of control (dose: 100.0 mg/kg/injection, schedule: Q01DX005 (ip), vehicle: saline with Tween-80); 100 % of control (dose: 200.0 mg/kg/injection, schedule: Q01DX005 (ip), vehicle: saline with Tween-80).

As for `CCC#CC(=O)O`, the T/C is, setting by setting: (dose: 25.0 mg/kg/injection, schedule: Q01DX009 (ip), vehicle: saline) 96 % of control; under setting [9], 95 % of control and 96 % of control.

Take `O=C(N/C(=C\c1nc2ccccc2s1)c1ccccc1O)c1ccccc1`: the T/C (dose: 100.0 mg/kg/injection, schedule: Q04DX002 (ip), vehicle: saline with Tween-80) is 104 % of control; the T/C (dose: 200.0 mg/kg/injection, schedule: Q04DX002 (ip), vehicle: saline with Tween-80) was 99 % of control; the T/C (dose: 400.0 mg/kg/injection, schedule: Q04DX002 (ip), vehicle: saline with Tween-80) is 103 % of control.

Consider `O=C1c2ccccc2CC1CS(=O)(=O)CC1Cc2ccccc2C1=O` (centres undefined), for which the T/C (dose: 100.0 mg/kg/injection, schedule: Q04DX002 (ip), vehicle: saline) is 100 % of control; the T/C (dose: 200.0 mg/kg/injection, schedule: Q04DX002 (ip), vehicle: saline) was 100 % of control; the T/C (dose: 400.0 mg/kg/injection, schedule: Q04DX002 (ip), vehicle: saline) was 91 % of control and 96 % of control.

Consider `CCCCCCCCC#CCO`, for which the T/C by setting is: under setting [6], 86 % of control; under setting [7], 86 % of control.
